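Compound exposure: 48 hours, 5 concentrations, 96-well plates. GI50: concentration for 50% inhibition of growth. TGI marks complete inhibition of growth.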
Legend:
Test in all cases: NCI tumour cell line growth inhibition, 48 h
LXFL 529 NSCLC = system: LXFL 529 NSCLC
KM20L2 colon = system: KM20L2 colon
DMS 273 small cell lung = system: DMS 273 small cell lung
DMS 114 small cell lung = system: DMS 114 small cell lung
DLD-1 colon = system: DLD-1 colon
SNB-78 CNS = system: SNB-78 CNS
HOP-18 NSCLC = system: HOP-18 NSCLC
SN12K1 renal = system: SN12K1 renal
P388/ADR leukemia = system: P388/ADR leukemia
P388 leukemia = system: P388 leukemia
RXF-631 renal = system: RXF-631 renal

**Q.** For `Cc1cccc2ns[s+]c12`, which TGI (LXFL 529 NSCLC) is on record?
**A.** Its TGI is > 100 µM.

**Q.** And the TGI (KM20L2 colon)?
**A.** The TGI was > 100 µM.

**Q.** What about the TGI (DMS 273 small cell lung) of the same compound?
**A.** The TGI was > 100 µM.

**Q.** What about the TGI (DMS 114 small cell lung) of the same compound?
**A.** Its TGI is 58.1 µM.

**Q.** And the TGI (DLD-1 colon)?
**A.** Its TGI is > 100 µM.

**Q.** And the TGI (SNB-78 CNS)?
**A.** The TGI was > 100 µM.

**Q.** And the TGI (HOP-18 NSCLC)?
**A.** Its TGI is > 100 µM.

**Q.** `Nc1nc(NC(=O)C2=NS(=O)(=O)c3cc(S(N)(=O)=O)c(Cl)cc3N2)n[nH]1` was tested. Which TGI (LXFL 529 NSCLC) did it give?
**A.** Its TGI is > 100 µM.

**Q.** And the TGI (KM20L2 colon)?
**A.** Its TGI is > 100 µM.

**Q.** And the TGI (DMS 114 small cell lung)?
**A.** The TGI was > 100 µM.

**Q.** And the TGI (DLD-1 colon)?
**A.** The TGI was > 100 µM.

**Q.** What about the TGI (SNB-78 CNS) of the same compound?
**A.** The TGI was > 100 µM.

**Q.** And the TGI (HOP-18 NSCLC)?
**A.** Its TGI is > 100 µM.

**Q.** With `CC(C)CCC[C@@H](C)[C@H]1CC[C@H]2[C@@H]3CC=C4CC(OCCCCN(O)CCCSC5OC(CO)C(O)C(O)C5O)CC[C@]4(C)[C@H]3CC[C@]12C` (stereo partly drawn) as the compound, how does the TGI (LXFL 529 NSCLC) read?
**A.** Its TGI is 47.3 µM.

**Q.** And the TGI (KM20L2 colon)?
**A.** The TGI was > 100 µM.

**Q.** And the TGI (DMS 273 small cell lung)?
**A.** The TGI was > 100 µM.

**Q.** What about the TGI (DMS 114 small cell lung) of the same compound?
**A.** Its TGI is 45.6 µM.

**Q.** And the TGI (DLD-1 colon)?
**A.** The TGI was > 100 µM.

**Q.** And the TGI (SNB-78 CNS)?
**A.** Its TGI is > 100 µM.

**Q.** `COc1cc2c(oc(=O)c3c4oc([Si](C)(C)C)cc4cc(OC)c23)c2cccc(O)c12` was tested. Which TGI (LXFL 529 NSCLC) did it give?
**A.** Its TGI is > 100 µM.

**Q.** And the TGI (KM20L2 colon)?
**A.** Its TGI is > 100 µM.

**Q.** What about the TGI (DMS 273 small cell lung) of the same compound?
**A.** The TGI was > 100 µM.

**Q.** What about the TGI (DMS 114 small cell lung) of the same compound?
**A.** Its TGI is > 100 µM.

**Q.** What about the TGI (DLD-1 colon) of the same compound?
**A.** The TGI was > 100 µM.

**Q.** And the TGI (HOP-18 NSCLC)?
**A.** The TGI was > 100 µM.

**Q.** `CCC1OC(=O)C(C)C(OC2CC(C)(O)C(O)C(C)O2)C(C)C(O)C(C)(O)CC(C)C(=O)C(C)C(O)C1C` (stereo not drawn) was tested. Which TGI (KM20L2 colon) did it give?
**A.** The TGI was > 300 µM.

**Q.** And the TGI (DMS 273 small cell lung)?
**A.** The TGI was > 300 µM.

**Q.** And the TGI (DMS 114 small cell lung)?
**A.** The TGI was > 300 µM.

**Q.** What about the TGI (DLD-1 colon) of the same compound?
**A.** Its TGI is > 300 µM.

**Q.** And the TGI (SN12K1 renal)?
**A.** Its TGI is > 300 µM.

**Q.** And the TGI (SNB-78 CNS)?
**A.** The TGI was > 189 µM.

**Q.** What about the TGI (HOP-18 NSCLC) of the same compound?
**A.** The TGI was > 300 µM.

**Q.** What about the TGI (P388/ADR leukemia) of the same compound?
**A.** The TGI was > 300 µM.

**Q.** What about the TGI (P388 leukemia) of the same compound?
**A.** Its TGI is > 300 µM.

**Q.** Which TGI (LXFL 529 NSCLC) does the source give for `CC(C)OP(=O)(OC(C)C)c1ncn(-c2ccc([N+](=O)[O-])cc2)n1` here?
**A.** The TGI was > 100 µM.

**Q.** What about the TGI (KM20L2 colon) of the same compound?
**A.** Its TGI is > 100 µM.

**Q.** What about the TGI (DMS 273 small cell lung) of the same compound?
**A.** Its TGI is > 100 µM.

**Q.** And the TGI (DMS 114 small cell lung)?
**A.** Its TGI is > 100 µM.

**Q.** What about the TGI (DLD-1 colon) of the same compound?
**A.** The TGI was > 100 µM.

**Q.** With `CC(C)(C)C(=O)Cc1cc2c(cc1C(=O)O)S(=O)(=O)NC(C(C)(C)C)=C2` as the compound, how does the TGI (LXFL 529 NSCLC) read?
**A.** The TGI was > 100 µM.

**Q.** What about the TGI (DMS 114 small cell lung) of the same compound?
**A.** The TGI was > 100 µM.

**Q.** And the TGI (DLD-1 colon)?
**A.** Its TGI is > 100 µM.

**Q.** What about the TGI (SNB-78 CNS) of the same compound?
**A.** The TGI was > 100 µM.

**Q.** Which TGI (LXFL 529 NSCLC) does the source give for `COc1ccc(C2Oc3cc(OC)c(O)cc3[C@@H]2C)cc1` (stereo partly drawn) here?
**A.** Its TGI is 32.1 µM.

**Q.** And the TGI (KM20L2 colon)?
**A.** Its TGI is > 100 µM.

**Q.** What about the TGI (DMS 273 small cell lung) of the same compound?
**A.** The TGI was > 100 µM.

**Q.** What about the TGI (DMS 114 small cell lung) of the same compound?
**A.** The TGI was 40.3 µM.

**Q.** And the TGI (DLD-1 colon)?
**A.** Its TGI is 44.4 µM.

**Q.** What about the TGI (SNB-78 CNS) of the same compound?
**A.** The TGI was > 100 µM.

**Q.** And the TGI (HOP-18 NSCLC)?
**A.** Its TGI is > 100 µM.

**Q.** How did the TGI (LXFL 529 NSCLC) turn out when `CN1C(=N\S(=O)(=O)c2ccc(Cl)cc2)/C(=N/N=P(c2ccccc2)(c2ccccc2)c2ccccc2)c2ccccc21` was run?
**A.** Its TGI is > 100 µM.

**Q.** And the TGI (KM20L2 colon)?
**A.** Its TGI is > 100 µM.

**Q.** What about the TGI (RXF-631 renal) of the same compound?
**A.** Its TGI is > 100 µM.

**Q.** And the TGI (DMS 273 small cell lung)?
**A.** The TGI was > 100 µM.

**Q.** And the TGI (DLD-1 colon)?
**A.** The TGI was > 100 µM.

**Q.** And the TGI (SNB-78 CNS)?
**A.** Its TGI is > 100 µM.

**Q.** How did the TGI (LXFL 529 NSCLC) turn out when `CN(C)CCCNc1ccc2nnn3c4ccc([N+](=O)[O-])cc4c(=O)c1c23` was run?
**A.** Its TGI is 15 µM.

**Q.** What about the TGI (KM20L2 colon) of the same compound?
**A.** The TGI was 9.69 µM.

**Q.** What about the TGI (RXF-631 renal) of the same compound?
**A.** Its TGI is 7.59 µM.

**Q.** What about the TGI (DMS 273 small cell lung) of the same compound?
**A.** The TGI was 6.89 µM.

**Q.** And the TGI (DMS 114 small cell lung)?
**A.** The TGI was 14.1 µM.

**Q.** What about the TGI (DLD-1 colon) of the same compound?
**A.** Its TGI is 14.4 µM.

**Q.** And the TGI (SNB-78 CNS)?
**A.** The TGI was 16 µM.

**Q.** And the TGI (HOP-18 NSCLC)?
**A.** Its TGI is 13.6 µM.

**Q.** With `O=C(CCc1nnc2s/c(=C\c3ccc(Cl)cc3Cl)c(=O)n12)Nc1cc(Cl)c(Cl)cc1Cl` as the compound, how does the GI50 (LXFL 529 NSCLC) read?
**A.** Its GI50 is > 100 µM.

**Q.** What about the TGI (LXFL 529 NSCLC) of the same compound?
**A.** The TGI was > 100 µM.

**Q.** And the GI50 (KM20L2 colon)?
**A.** The GI50 was > 100 µM.

**Q.** And the TGI (KM20L2 colon)?
**A.** Its TGI is > 100 µM.

**Q.** And the TGI (RXF-631 renal)?
**A.** The TGI was > 100 µM.

**Q.** And the GI50 (DMS 273 small cell lung)?
**A.** Its GI50 is > 100 µM.

**Q.** What about the TGI (DMS 273 small cell lung) of the same compound?
**A.** The TGI was > 100 µM.

**Q.** And the GI50 (DMS 114 small cell lung)?
**A.** Its GI50 is > 100 µM.

**Q.** And the TGI (DMS 114 small cell lung)?
**A.** The TGI was > 100 µM.

**Q.** And the GI50 (DLD-1 colon)?
**A.** Its GI50 is > 100 µM.

**Q.** What about the TGI (DLD-1 colon) of the same compound?
**A.** The TGI was > 100 µM.

**Q.** And the TGI (SNB-78 CNS)?
**A.** The TGI was > 100 µM.

**Q.** And the GI50 (HOP-18 NSCLC)?
**A.** The GI50 was > 100 µM.

**Q.** And the TGI (HOP-18 NSCLC)?
**A.** The TGI was > 100 µM.

Source: PubChem BioAssay (NCI)
